Assay results from patent US8889688B2, “Piperazines as antimalarial agents” (Actelion Pharmaceuticals Ltd., priority 2011, dated 2014).
Like-named read-outs stand apart in the source and are kept apart here.

Key:
[1] = tested on: P. berghei strain GFP-ANKA; assay: In vivo antimalarial efficacy study in infected NMRI mice; details: Plasmodium berghei; female NMRI mice infected with P. berghei GFP-ANKA; single oral dose of 100 mg/kg 24 h after infection; parasitemia 48 h after drug treatment (day 3); read-out: Activity (inhibition of parasitemia) expressed as a percent relative to the control group
Summary of the method: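 Female NMRI mice, in groups of three, were infected i.v. on day 0 with 2×10^7 P. berghei GFP-ANKA parasitized erythrocytes. At 24 h they received one oral 100 mg/kg dose in Tween 80/ethanol (7%/3%). Parasitemia was counted by FACS on day 3, and activity was given as percent reduction versus controls.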

[2] = tested on: erythrocytic stages of P. falciparum NF54; assay: Plasmodium falciparum in vitro assay, [3H] hypoxanthine incorporation; format: cell-based; details: Plasmodium falciparum, Erythrocyte, 72 h, P. falciparum NF54 in human red blood cells, 48 h + 24 h incubation
Summary of the method: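 Cultures in human red blood cells (2.5% hematocrit, 0.3% parasitemia) were exposed to serially diluted compounds for 48 h at 37° C. under 4% CO2, 3% O2, 93% N2. [3H] hypoxanthine (0.5 μCi) was added for a further 24 h, incorporation counted by scintillation, and IC50 derived from sigmoidal inhibition curves.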

[3] = screening medium with Albumax (5 g/L), read-out: IC50 on NF54 (with Albumax)
[4] = screening medium with human serum (50% final concentration), read-out: IC50 on NF54 (with 50% Serum)

| Structure (SMILES) | inhibition in vivo at 100 mg/kg [1] | IC50 [2, 3] | IC50 [2, 4] |
| --- | --- | --- | --- |
| CC(=O)N1CCN(c2ccc(CN(C(=O)C=Cc3ccc(C(F)(F)F)cc3)[C@@H](Cc3ccccc3)C(=O)N3CCN(Cc4ccc(C#N)cc4)CC3)cc2)CC1 [Example 24, (S)-N-[4-(4-Acetyl-piperazin-1-yl)-benzyl]-N-{1-benzyl-2-[4-(4-cyano-benzyl)-piperazin-1-yl]-2-oxo-ethyl}-3-(4-trifluoromethyl-phenyl)-acrylamide] | 79.2% | 2.8 nM | 13.9 nM |
| CC(=O)N1CCN(c2ccc(CN(C(=O)C=Cc3ccc(S(C)(=O)=O)cc3)[C@@H](Cc3ccccc3)C(=O)N3CCN(Cc4ccccc4)CC3)cc2)CC1 [Example 6, (S)-N-[4-(4-Acetyl-piperazin-1-yl)-benzyl]-N-[1-benzyl-2-(4-benzyl-piperazin-1-yl)-2-oxo-ethyl]-3-(4-methanesulfonyl-phenyl)-acrylamide] | 80.4% | 9.4 nM | 32 nM |
| CCOc1ccc(C=CC(=O)N(Cc2ccc(N3CCN(C(C)=O)CC3)cc2)[C@@H](Cc2ccccc2)C(=O)N2CCN(Cc3ccc(C#N)cc3)CC2)cc1 [Example 25, (S)-N-[4-(4-Acetyl-piperazin-1-yl)-benzyl]-N-{1-benzyl-2-[4-(4-cyano-benzyl)-piperazin-1-yl]-2-oxo-ethyl}-3-(4-ethoxy-phenyl)-acrylamide] | 99.1% | 1.2 nM | 4.7 nM |
| CC(=O)N1CCN(c2ccc(CN(C(=O)C=Cc3ccc(C(C)(C)C)cc3)[C@@H](Cc3ccccc3)C(=O)N3CCN(Cc4ccc(N(C)CCO)cc4)CC3)cc2)CC1 [Example 62, (S)-N-[4-(4-Acetyl-piperazin-1-yl)-benzyl]-N-[1-benzyl-2-(4-{4-[(2-hydroxy-ethyl)-methyl-amino]-benzyl}-piperazin-1-yl)-2-oxo-ethyl]-3-(4-tert-butyl-phenyl)-acrylamide] | 99.4% | 0.7 nM | 3.2 nM |
| CC(=O)N1CCN(c2ccc(CN(C(=O)C=Cc3ccc(OC(F)F)cc3)[C@@H](Cc3ccccc3)C(=O)N3CCN(Cc4ccc(N(C)CCO)cc4)CC3)cc2)CC1 [Example 60, (S)-N-[4-(4-Acetyl-piperazin-1-yl)-benzyl]-N-[1-benzyl-2-(4-{4-[(2-hydroxy-ethyl)-methyl-amino]-benzyl}-piperazin-1-yl)-2-oxo-ethyl]-3-(4-difluoromethoxy-phenyl)-acrylamide] | 78.3% | 3 nM | 8.1 nM |
| CC(=O)N1CCN(c2ccc(CN(C(=O)C=Cc3ccc(OC(C)C)cc3)[C@@H](Cc3ccccc3)C(=O)N3CCN(Cc4ccc(N(C)CCO)cc4)CC3)cc2)CC1 [Example 58, (S)-N-[4-(4-Acetyl-piperazin-1-yl)-benzyl]-N-[1-benzyl-2-(4-{4-[(2-hydroxy-ethyl)-methyl-amino]-benzyl}-piperazin-1-yl)-2-oxo-ethyl]-3-(4-isopropoxy-phenyl)-acrylamide] | 98.2% | 1.4 nM | 3.9 nM |
| CCOc1ccc(C=CC(=O)N(Cc2ccc(N3CCN(C(C)=O)CC3)cc2)[C@@H](Cc2ccccc2)C(=O)N2CCN(Cc3ccc(N(C)CCO)cc3)CC2)cc1 [Example 54, (S)-N-[4-(4-Acetyl-piperazin-1-yl)-benzyl]-N-[1-benzyl-2-(4-{4-[(2-hydroxy-ethyl)-methyl-amino]-benzyl}-piperazin-1-yl)-2-oxo-ethyl]-3-(4-ethoxy-phenyl)-acrylamide] | 93.7% | 1.6 nM | 5.9 nM |
| CCCOc1ccc(C=CC(=O)N(Cc2ccc(N3CCN(C(C)=O)CC3)cc2)[C@@H](Cc2ccccc2)C(=O)N2CCN(Cc3ccc(Cl)cc3)CC2)cc1 [Example 38, (S)-N-[4-(4-Acetyl-piperazin-1-yl)-benzyl]-N-{1-benzyl-2-[4-(4-chloro-benzyl)-piperazin-1-yl]-2-oxo-ethyl}-3-(4-propoxy-phenyl)-acrylamide] | 98.5% | 1.8 nM | 9 nM |
| CC(=O)N1CCN(c2ccc(CN(C(=O)C=Cc3ccc(S(C)(=O)=O)cc3)[C@@H](Cc3ccccc3)C(=O)N3CCN(Cc4ccc(N(C)CCO)cc4)CC3)cc2)CC1 [Example 55, (S)-N-[4-(4-Acetyl-piperazin-1-yl)-benzyl]-N-[1-benzyl-2-(4-{4-[(2-hydroxy-ethyl)-methyl-amino]-benzyl}-piperazin-1-yl)-2-oxo-ethyl]-3-(4-methanesulfonyl-phenyl)-acrylamide] | < 40% | 7.5 nM | 14.8 nM |
| CCCOc1ccc(C=CC(=O)N(Cc2ccc(N3CCN(C(C)=O)CC3)cc2)[C@@H](Cc2ccccc2)C(=O)N2CCN(Cc3ccc(N(C)C)cc3)CC2)cc1 [Example 18, (S)-N-[4-(4-Acetyl-piperazin-1-yl)-benzyl]-N-{1-benzyl-2-[4-(4-dimethylamino-benzyl)-piperazin-1-yl]-2-oxo-ethyl}-3-(4-propoxy-phenyl)-acrylamide] | 99.1% | 2.5 nM | 11.8 nM |
| CC(=O)N1CCN(c2ccc(CN(C(=O)C=Cc3ccc(OC(C)C)cc3)[C@@H](Cc3ccccc3)C(=O)N3CCN(Cc4ccc(C#N)cc4)CC3)cc2)CC1 [Example 29, (S)-N-[4-(4-Acetyl-piperazin-1-yl)-benzyl]-N-{1-benzyl-2-[4-(4-cyano-benzyl)-piperazin-1-yl]-2-oxo-ethyl}-3-(4-isopropoxy-phenyl)-acrylamide] | 99.2% | 1.1 nM | 3.7 nM |
| CC(=O)N1CCN(c2ccc(CN(C(=O)C=Cc3ccc(C(C)(C)C)cc3)[C@@H](Cc3ccccc3)C(=O)N3CCN(Cc4ccc(C#N)cc4)CC3)cc2)CC1 [Example 34, (S)-N-[4-(4-Acetyl-piperazin-1-yl)-benzyl]-N-{1-benzyl-2-[4-(4-cyano-benzyl)-piperazin-1-yl]-2-oxo-ethyl}-3-(4-tert-butyl-phenyl)-acrylamide] | 99.2% | 0.5 nM | 3.8 nM |
